Test results published in the supplement of paper PMC10307832.

Assays:
Assay in all cases: relative viability (nuclei count vs DMSO), 5 days (fraction); higher = more cells survive
[1] = compound: CS(=O)(=O)c1ccc(-c2cnc(N)c(C(=O)Nc3ccccc3)n2)cc1 [VE-821]
In short: (§1)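 Cells of lung cancer lines were placed in 1536-well plates and kept overnight at 37 °C. Pinning then delivered five library-drug doses (not always all listed), spaced by √10, onto plates anchored with vehicle, and the cells were left 5 days without changing medium. One step fixed, permeabilised and stained them with Hoechst, and MetaXpress counted nuclei in 4× images. Viability, as a median over plates, is treated-well nuclei divided by vehicle-well nuclei, with acceptance only at control CV below 25% and at least one doubling.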

[2] = compound: CS(=O)(=O)c1ccc(C(=O)Nc2ccc(Cl)c(-c3ccccn3)c2)c(Cl)c1 [Vismodegib]
In short: as §1

[3] = compound: N#CC[C@H](C1CCCC1)n1cc(-c2ncnc3[nH]ccc23)cn1 [Ruxolitinib]
In short: as §1

[4] = compound: N#CC[C@H](C1CCCC1)n1cc(-c2ncnc3[nH]ccc23)cn1 [Ruxolitinib] + CC(=O)Nc1cccc(-n2c(=O)n(C3CC3)c(=O)c3c(Nc4ccc(I)cc4F)n(C)c(=O)c(C)c32)c1 [Trametinib] (partner 0.02 µM)
In short: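 Lung cancer cell lines were pin-tool dosed in 1536-well plates on the day after seeding, with either a lone drug or a fixed anchor-drug dose plus five library-drug doses (not always all listed) in √10 steps. Nuclei were counted on 4× images after 5 days. Relative viability is the ratio of treated-well to vehicle-well nuclei counts, with each value a median of duplicate plates.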

Cell Line: UMC-11
- relative viability ([1]; 0.08 µM): 1.08
- relative viability ([1]; 0.253 µM): 0.915
- relative viability ([1]; 0.8 µM): 0.948
- relative viability ([1]; 2.53 µM): 1.04
- relative viability ([1]; 8 µM): 0.531
- relative viability ([2]; 0.08 µM): 0.897
- relative viability ([2]; 0.253 µM): 0.919
- relative viability ([2]; 0.8 µM): 1
- relative viability ([2]; 2.53 µM): 0.947
- relative viability ([2]; 8 µM): 0.834
- relative viability ([3]; 0.08 µM): 0.954
- relative viability ([3]; 0.253 µM): 0.999
- relative viability ([3]; 0.8 µM): 1.1
- relative viability ([3]; 2.53 µM): 1.13
- relative viability ([3]; 8 µM): 1.04
- relative viability ([4]; first compound 0.08 µM): 0.823
- relative viability ([4]; first compound 0.253 µM): 0.703
- relative viability ([4]; first compound 0.8 µM): 0.872
- relative viability ([4]; first compound 2.53 µM): 1.03
- relative viability ([4]; first compound 8 µM): 0.653
